From PubChem BioAssay (NCI)
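These data come from cells grown in 96-well plates and exposed to compound for 48 hours at five concentrations. TGI denotes the concentration required for complete inhibition of growth.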

Key:
Assay in all cases: NCI tumour cell line growth inhibition, 48 h
[1] = system: 786-0 renal
[2] = system: A498 renal
[3] = system: A549 NSCLC
[4] = system: ACHN renal
[5] = system: BT-549 breast
[6] = system: CAKI-1 renal
[7] = system: CCRF-CEM leukemia
[8] = system: COLO 205 colon
[9] = system: DU-145 prostate
[10] = system: EKVX NSCLC
[11] = system: HCT-116 colon
[12] = system: HCT-15 colon
[13] = system: HL-60(TB) leukemia
[14] = system: HOP-62 NSCLC
[15] = system: HS 578T breast
[16] = system: HT29 colon
[17] = system: IGROV1 ovarian
[18] = system: K-562 leukemia
[19] = system: KM12 colon
[20] = system: LOX IMVI melanoma
[21] = system: M14 melanoma
[22] = system: MCF7 breast
[23] = system: MDA-MB-231 breast
[24] = system: MDA-MB-435
[25] = system: MDA-N
[26] = system: MOLT-4 leukemia
[27] = system: NCI-H226 lung
[28] = system: NCI-H23 lung
[29] = system: NCI-H522 lung
[30] = system: NCI/ADR-RES ovarian
[31] = system: OVCAR-3 ovarian
[32] = system: OVCAR-4 ovarian
[33] = system: OVCAR-5 ovarian
[34] = system: OVCAR-8 ovarian
[35] = system: PC-3 prostate
[36] = system: RPMI-8226 leukemia
[37] = system: SF-268 CNS
[38] = system: SF-295 CNS
[39] = system: SF-539 CNS
[40] = system: SK-MEL-2 melanoma
[41] = system: SK-MEL-28 melanoma
[42] = system: SK-MEL-5 melanoma
[43] = system: SK-OV-3 ovarian
[44] = system: SN12C renal
[45] = system: SNB-19 CNS
[46] = system: SNB-75 CNS
[47] = system: SR leukemia
[48] = system: SW-620 colon
[49] = system: T-47D breast
[50] = system: TK-10 renal
[51] = system: U251 CNS
[52] = system: UACC-257 melanoma
[53] = system: UACC-62 melanoma
[54] = system: UO-31 renal
[55] = system: HCC-2998 colon
[56] = system: HOP-92 NSCLC
[57] = system: NCI-H460 lung
[58] = system: RXF 393 renal

In the case of `CC(O)(CCCCCl)c1nc2ccccc2s1` (configuration not stated), the TGI [1] is reported as > 100 µM, the TGI [2] is reported as > 100 µM and the TGI [3] is reported as > 100 µM. The TGI [4] was > 100 µM, the TGI [5] was > 100 µM and the TGI [6] was > 100 µM. For the same molecule, the TGI [7] was > 100 µM, the TGI [8] was > 100 µM and the TGI [9] was > 100 µM. The TGI [10] was > 100 µM, the TGI [11] was > 100 µM and the TGI [12] was > 100 µM. For the same molecule, the TGI [13] was > 100 µM, the TGI [14] was > 100 µM and the TGI [15] was > 100 µM. For the same molecule, the TGI [16] was > 100 µM, the TGI [17] was > 100 µM and the TGI [18] was > 100 µM. The TGI [19] was > 100 µM, the TGI [20] was > 100 µM and the TGI [21] was > 100 µM. For the same molecule, the TGI [22] was > 100 µM, the TGI [23] was > 100 µM and the TGI [24] was > 100 µM. The TGI [25] was > 100 µM, the TGI [26] was > 100 µM and the TGI [27] was > 100 µM. The TGI [28] was > 100 µM, the TGI [29] was > 100 µM and the TGI [30] was > 100 µM. The TGI [31] was > 100 µM, the TGI [32] was > 100 µM and the TGI [33] was > 100 µM. The TGI [34] was > 100 µM, the TGI [35] was > 100 µM and the TGI [36] was > 100 µM. For the same molecule, the TGI [37] was > 100 µM, the TGI [38] was > 100 µM and the TGI [39] was > 100 µM. The TGI [40] was > 100 µM, the TGI [41] was > 100 µM and the TGI [42] was > 100 µM. The TGI [43] was > 100 µM, the TGI [44] was > 100 µM and the TGI [45] was > 100 µM. The TGI [46] was > 100 µM, the TGI [47] was > 100 µM and the TGI [48] was > 100 µM. For the same molecule, the TGI [49] was > 100 µM, the TGI [50] was > 100 µM and the TGI [51] was > 100 µM. For the same molecule, the TGI [52] was > 100 µM, the TGI [53] was > 100 µM and the TGI [54] was > 100 µM.

In the case of `CCc1nc(N)nc(N)c1-c1ccc(Cc2ccccc2)c([N+](=O)[O-])c1`, the TGI [1] is reported as > 60.7 µM, the TGI [2] is reported as > 74.2 µM and the TGI [3] is reported as > 70.7 µM. For the same molecule, the TGI [4] was > 61.2 µM, the TGI [5] was > 65.8 µM and the TGI [6] was > 100 µM. The TGI [7] was > 62 µM, the TGI [8] was > 65.4 µM and the TGI [9] was > 76.3 µM. The TGI [10] was > 58.8 µM, the TGI [55] was > 64.6 µM and the TGI [11] was > 61.1 µM. The TGI [12] was > 59.7 µM, the TGI [13] was > 53.4 µM and the TGI [14] was > 69.7 µM. The TGI [56] was > 59.3 µM, the TGI [15] was > 67.1 µM and the TGI [16] was > 61.5 µM. For the same molecule, the TGI [17] was > 64.2 µM, the TGI [18] was > 59.5 µM and the TGI [19] was > 62.4 µM. For the same molecule, the TGI [20] was > 80.9 µM, the TGI [21] was > 84.9 µM and the TGI [22] was > 65.1 µM. For the same molecule, the TGI [23] was > 70.8 µM, the TGI [24] was > 100 µM and the TGI [25] was > 81.8 µM. For the same molecule, the TGI [26] was > 63.1 µM, the TGI [27] was > 68.9 µM and the TGI [28] was > 60.4 µM. The TGI [57] was > 60.8 µM, the TGI [29] was > 35.8 µM and the TGI [30] was > 62.8 µM. The TGI [31] was > 76 µM, the TGI [32] was > 93.3 µM and the TGI [33] was > 100 µM. For the same molecule, the TGI [34] was > 62.1 µM, the TGI [35] was > 100 µM and the TGI [36] was > 54.3 µM. The TGI [58] was > 84.3 µM, the TGI [37] was > 56.2 µM and the TGI [38] was > 65.5 µM. The TGI [39] was > 62.4 µM, the TGI [40] was > 100 µM and the TGI [41] was > 100 µM. For the same molecule, the TGI [42] was > 100 µM, the TGI [43] was > 83.6 µM and the TGI [44] was > 100 µM. For the same molecule, the TGI [45] was > 100 µM, the TGI [46] was > 60 µM and the TGI [47] was 6.11 µM. The TGI [48] was > 64.2 µM, the TGI [49] was > 85.4 µM and the TGI [50] was > 71.4 µM. For the same molecule, the TGI [51] was > 65.5 µM, the TGI [52] was > 71 µM and the TGI [53] was > 65.6 µM. For the same molecule, the TGI [54] was > 54.5 µM.
